Three molecules from article PMC6030096, “Synergy of Physico-chemical and Biological Experiments for Developing a Cyclooxygenase-2 Inhibitor” (Scientific Reports, 2018) can be followed below.

One assay deals with T1, COX-1 (Homo sapiens, UniProt P23219).
T1 construct: endogenous in cells; host or cells: human whole blood (heparinized, venipuncture)
Description: Human whole blood assay for COX-1 (A23187 stimulated TxB2). It is filed as cell-based. As to conditions: final conc 1 µM, A23187 50 µM. An excerpt: (§1) The use of human blood for the whole blood assay was duly approved by the institutional ethical committee of the University for human subjects. Production of prostaglandin PGE2 during lipopolysaccharide (LPS) stimulated whole blood was used to quantify COX-2 inhibitory activity whereas calcium ionophore (A23187) stimulated thromboxane (TxB2) production was used to measure COX-1 inhibitory activity of the compounds.
Approval for the use of human blood was taken from the institutional ethical committee of Guru Nanak Dev University Amritsar and informed consent was obtained from the subject[32],[33]. All experiments were performed in accordance with the relevant guidelines and regulations. By venipuncture, the blood sample was collected in heparinized tubes. […] Each sample in duplicate was assayed for TxB2 (the breakdown product of TxA2) using TXB2 Express ELISA kit (Cayman Chemicals, Ann Arbor, MI) by the reported protocol.

Assay [1] has as its target T2, COX-2 (Homo sapiens, UniProt P35354).
T2 sequence (P35354 18-604): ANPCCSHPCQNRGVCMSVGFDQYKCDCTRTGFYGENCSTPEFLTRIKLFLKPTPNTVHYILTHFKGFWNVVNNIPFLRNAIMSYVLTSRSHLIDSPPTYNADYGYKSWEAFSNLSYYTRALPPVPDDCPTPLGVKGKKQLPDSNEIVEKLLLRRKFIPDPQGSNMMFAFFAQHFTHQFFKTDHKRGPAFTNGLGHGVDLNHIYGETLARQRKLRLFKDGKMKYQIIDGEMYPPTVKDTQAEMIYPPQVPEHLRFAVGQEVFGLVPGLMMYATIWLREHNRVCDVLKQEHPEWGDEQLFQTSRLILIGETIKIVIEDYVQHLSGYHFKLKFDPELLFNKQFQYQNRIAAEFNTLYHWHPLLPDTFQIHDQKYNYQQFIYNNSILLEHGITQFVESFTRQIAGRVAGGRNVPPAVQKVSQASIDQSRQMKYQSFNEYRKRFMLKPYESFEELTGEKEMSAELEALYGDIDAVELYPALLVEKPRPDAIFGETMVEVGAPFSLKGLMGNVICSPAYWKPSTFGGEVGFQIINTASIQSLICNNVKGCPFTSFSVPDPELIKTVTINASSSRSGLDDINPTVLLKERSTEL
Description: COX-2 enzyme immunoassay (Cayman inhibitor screening kit). It is filed as biochemical. On the set-up: purchased Cayman Chemical Co. 560131. As to conditions: for IC50: enzyme immunoassay, average of three experiments; for Selectivity index: SI = IC50 (COX-1)/ IC50 (COX-2). The procedure: Principally, the catalytic activity of COX-1/2 is slowed down in the presence of its inhibitor and quantitatively, it is inversely proportional to the amount of prostaglandin produced in the presence of inhibitor.
The enzyme inhibition screening assay kits for COX-1/2 and 5-LOX with item no. […] The 100% initial activity tubes for the two enzymes contained 10 µL heme and 10 µL of the enzyme in 160 µL reaction buffer. Then 10 µL inhibitor (compound of above mentioned concentrations) was added to the inhibitor tubes for the two enzymes and 10 µL of vehicle (DMSO) was added to 100% initial activity and background tubes. All the tubes were incubated for 10 min at 37 °C and the reaction was started by adding 10 µL arachidonic acid to all the reaction tubes. After incubation of the reaction vials for 2 min at 37 °C, the enzyme catalysis was stopped by adding 30 µL saturated stannous chloride solution to each test tube and solutions were kept at 0–4 °C. For EIA (enzyme immunoassay) procedure: the EIA buffers and assay specific reagents were prepared as written in the manual. In the COX dilutions, two test tubes labelled as BC1 and BC2 were taken to prepare background samples. Each tube contained 990 µL of EIA buffer and 10 µL of background COX-1 for BC1 and 10 µL of background COX-2 for BC2. The samples for 100% initial activity were diluted in three vials labelled IA1, IA2 and IA3 for each enzyme. IA1 contained 990 µL EIA buffer and 10 µL enzyme, IA2 has 950 µL buffer and 50 µL solution of IA1 (1:2000 dilution of original sample) and IA3 carried 500 µL of buffer and 500 µL of IA2 solution (1:4000 dilution of original sample). Each solution was thoroughly mixed. Solutions of IA2 and IA3 were used for the assaying. […] C2 contained 950 µL buffer and 50 µL solution of C1 (1:2000 dilution of original sample) and vial C3 was charged with 500 µL buffer and 500 µL solution from C2 (1: 4000 dilution of original sample). Only C2 and C3 were run in the assay. After all the reaction dilutions, these were then subjected to 96 wells plate. The wells were divided as: 2 blank wells, 2 NSB wells (non-specific binding), 3 B0 wells (maximum binding), one TA well (total activity), 16 wells for standards (S1–S8 in repeat), 2 BC1 and 2 BC2 wells. Compounds (inhibitors) were put in all the other wells. The sequence for the addition of reagents onto the plate was as per the protocol of the assay kit. […] For developing the plate; it was emptied and washed with wash buffer 5 times followed by the addition of 200 µL Ellman’s reagent to each well. 5 µL tracer was added to the TA well. Then the plate was covered and left for 60 mins for development in dark. After the respective time period the cover was removed and the plate was read at 420 nm. %B/Bo (i.e. % sample or maximum bound) value for standards S1-S8 and each sample was determined from the absorbance values obtained according to the calculation given in the protocol. The amount of prostaglandins formed during the enzymatic reaction was calculated from the values of %B/Bo for all the compounds at all concentrations with the help of the standard curve (plotted between %B/Bo of standards and raw data given in the protocol). Then the prostaglandin formed at each concentration of all the compounds and percentage inhibition values were calculated. The graph between percent inhibition of the enzyme and corresponding concentration of the compound provided IC50 values for the compounds.

Assay [2] addresses T2, COX-2. Description: Human whole blood assay for COX-2 (LPS stimulated PGE2). On the set-up: endogenous in cells; host or cells: human whole blood, aspirin-pretreated, LPS-stimulated. In kind it is cell-based. As to conditions: final conc 1 µM, LPS 10 µg mL^−1. The procedure: as §1
COX-2 assay was performed by inactivating COX-1 with 50 µL aspirin (10 µg/mL) per 400 µL of blood sample.

T1 sequence (P23219 24-599): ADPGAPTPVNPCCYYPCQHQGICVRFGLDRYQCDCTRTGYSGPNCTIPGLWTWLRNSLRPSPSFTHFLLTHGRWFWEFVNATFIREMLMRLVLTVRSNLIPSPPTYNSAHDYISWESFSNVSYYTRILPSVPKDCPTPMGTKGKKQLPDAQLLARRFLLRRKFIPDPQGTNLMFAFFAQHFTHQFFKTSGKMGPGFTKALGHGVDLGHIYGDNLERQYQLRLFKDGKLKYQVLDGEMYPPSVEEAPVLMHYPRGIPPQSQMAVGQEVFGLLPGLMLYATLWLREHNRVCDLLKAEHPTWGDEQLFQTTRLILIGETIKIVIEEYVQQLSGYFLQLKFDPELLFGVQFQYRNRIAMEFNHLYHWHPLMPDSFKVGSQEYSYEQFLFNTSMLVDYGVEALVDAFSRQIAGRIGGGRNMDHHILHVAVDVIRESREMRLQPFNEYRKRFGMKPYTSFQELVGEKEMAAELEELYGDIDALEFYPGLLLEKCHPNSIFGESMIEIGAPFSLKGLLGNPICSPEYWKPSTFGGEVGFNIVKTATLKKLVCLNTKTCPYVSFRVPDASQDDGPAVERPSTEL

As usually defined, the IC50 is the concentration needed to halve the response being measured. On to `O=C1Nc2ccccc2C1=Cc1cn(C[C@H](O)Cn2c3ccccc3c(=O)c3ccccc32)c2ccccc12` [(S)-3c], for which the “Production of TXB2, +Ca^2+ Ionophore” value at COX-1 worked out at 1.80 ± 0.5 ng/mL. Further, inhibition against COX-2 [1] was half-maximal at 800 ± 75 nM (IC50). The “Production of PGE2, +LPS” value at COX-2 [2] came to 0.97 ± 0.09 ng/mL.

With `O=C1NC(=O)C(=Cc2cn(CCCn3c4ccccc4c(=O)c4ccccc43)c3ccccc23)C(=O)N1` [Compound 4a], the “Production of TXB2, +Ca^2+ Ionophore” value on COX-1 stood at 1.84 ± 0.11 ng/mL. At COX-2 [1], this molecule gave a Selectivity index of 300 and a concentration for half-maximal inhibition (IC50) of 100 ± 60 nM. The “Production of PGE2, +LPS” value on COX-2 [2] is 1.00 ± 0.13 ng/mL.

On to `O=C1Nc2ccccc2C1=Cc1cn(CCCn2c3ccccc3c(=O)c3ccccc32)c2ccccc12` [Compound 4c], for which the “Production of TXB2, +Ca^2+ Ionophore” value on COX-1 was determined as 1.70 ± 0.3 ng/mL. Moreover, on COX-2 [1], the Selectivity index stood at 13.33 and the IC50 was 300 ± 15 nM. Further, the “Production of PGE2, +LPS” value at COX-2 [2] is 1.01 ± 0.14 ng/mL.
